Experimental data as given in US12643910B2, “Substituted pyrazolo[3,4-b]pyridines as ectonucleotide pyrophosphatase/phosphodiesterase 1 (ENPP1) modulators” (SANFORD BURNHAM PREBYS MEDICAL DISCOVERY INSTITUTE, priority 2019, dated 2026).

Key:
human ENPP1 = target: T1, human ENPP1 (Homo sapiens, UniProt P22413); test: ENPP1 assay with ATP substrate (Transcreener AMP2/GMP2 TR-FRET); format: biochemical; conditions: 1 hour at room temperature
T1 construct: made in house
T1 sequence (P22413 1-925): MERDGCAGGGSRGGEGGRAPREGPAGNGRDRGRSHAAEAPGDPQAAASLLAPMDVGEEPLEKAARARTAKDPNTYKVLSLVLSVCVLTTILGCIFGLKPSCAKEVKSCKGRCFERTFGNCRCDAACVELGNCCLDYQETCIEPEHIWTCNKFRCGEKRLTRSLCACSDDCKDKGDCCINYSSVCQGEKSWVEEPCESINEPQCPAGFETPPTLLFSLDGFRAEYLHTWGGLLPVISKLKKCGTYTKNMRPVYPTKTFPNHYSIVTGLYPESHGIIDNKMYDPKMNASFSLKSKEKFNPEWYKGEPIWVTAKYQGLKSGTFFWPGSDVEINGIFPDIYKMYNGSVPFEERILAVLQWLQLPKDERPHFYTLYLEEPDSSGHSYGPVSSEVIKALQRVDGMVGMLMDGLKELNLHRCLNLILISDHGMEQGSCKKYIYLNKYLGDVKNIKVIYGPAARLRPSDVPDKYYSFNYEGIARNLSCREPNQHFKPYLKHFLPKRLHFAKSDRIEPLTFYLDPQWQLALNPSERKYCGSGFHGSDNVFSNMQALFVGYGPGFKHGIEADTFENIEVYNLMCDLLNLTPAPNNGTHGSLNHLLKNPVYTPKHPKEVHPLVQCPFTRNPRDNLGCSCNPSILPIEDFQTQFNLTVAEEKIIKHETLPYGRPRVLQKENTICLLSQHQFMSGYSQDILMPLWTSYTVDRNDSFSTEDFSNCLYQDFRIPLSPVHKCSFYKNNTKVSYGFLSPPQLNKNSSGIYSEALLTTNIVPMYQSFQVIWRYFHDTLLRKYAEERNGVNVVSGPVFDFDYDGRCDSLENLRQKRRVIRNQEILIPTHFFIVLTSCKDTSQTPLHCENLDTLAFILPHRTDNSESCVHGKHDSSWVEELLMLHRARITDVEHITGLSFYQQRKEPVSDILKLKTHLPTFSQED
Procedure, shortened: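 5′-AMP from ATP hydrolysis (300 nM ATP stock added; enzyme added as 8.5 μM stock) detected by competitive TR-FRET. Buffer: 50 mM Tris pH 7.5, 1 mM TCEP, 2 mM MgCl2, 0.005% Tween 20, 1% DMSO. Reaction 1 h at room temperature, EDTA stop. IC50 from 2-parameter variable-slope fit.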

ENPP3 = target: T2, ENPP3 (Homo sapiens, UniProt O14638); test: ENPP3 Km ATP assay; format: biochemical; conditions: ATP at Km
T2 sequence (O14638 1-875): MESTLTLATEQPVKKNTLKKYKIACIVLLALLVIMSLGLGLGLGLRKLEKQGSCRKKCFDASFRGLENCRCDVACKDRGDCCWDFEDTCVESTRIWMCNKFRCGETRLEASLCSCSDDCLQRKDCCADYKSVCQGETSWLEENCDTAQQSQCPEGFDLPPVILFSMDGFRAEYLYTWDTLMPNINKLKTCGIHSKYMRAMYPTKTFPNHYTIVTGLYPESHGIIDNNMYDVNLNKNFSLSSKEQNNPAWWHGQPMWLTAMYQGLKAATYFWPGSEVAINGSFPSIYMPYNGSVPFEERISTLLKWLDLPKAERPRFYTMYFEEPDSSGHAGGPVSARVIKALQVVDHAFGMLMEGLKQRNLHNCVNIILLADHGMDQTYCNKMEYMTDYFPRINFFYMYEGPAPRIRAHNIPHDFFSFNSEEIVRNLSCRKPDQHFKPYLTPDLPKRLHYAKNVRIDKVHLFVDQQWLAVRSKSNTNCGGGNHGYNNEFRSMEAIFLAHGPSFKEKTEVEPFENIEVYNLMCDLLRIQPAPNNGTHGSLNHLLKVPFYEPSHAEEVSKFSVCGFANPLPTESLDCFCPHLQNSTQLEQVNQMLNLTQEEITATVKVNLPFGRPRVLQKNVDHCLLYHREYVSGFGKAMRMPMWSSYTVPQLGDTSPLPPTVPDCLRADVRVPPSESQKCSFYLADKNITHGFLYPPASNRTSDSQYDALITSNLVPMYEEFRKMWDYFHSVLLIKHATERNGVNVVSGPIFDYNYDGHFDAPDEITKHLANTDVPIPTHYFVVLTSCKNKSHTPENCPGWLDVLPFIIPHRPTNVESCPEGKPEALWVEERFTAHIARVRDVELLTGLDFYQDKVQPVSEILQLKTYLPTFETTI

| SMILES | IC50 (human ENPP1) | IC50 (ENPP3) |
| --- | --- | --- |
| Cc1csc2c(N3CCC(NCCCc4ccccc4)CC3)ncnc12 [Example 3.27, 1-(7-Methylthieno[3,2-d]pyrimidin-4-yl)-N-(3-phenylpropyl)piperidin-4-amine] | 0.1 to 1 µM | > 20 µM |
| Cc1cc(S(N)(=O)=O)ccc1CNc1nc(-c2ccccn2)nc2scc(-c3ccccc3)c12 [Example 1.15, 3-Methyl-4-(((5-phenyl-2-(pyridin-2-yl)thieno[2,3-d]pyrimidin-4-yl)amino)methyl)-benzenesulfonamide] | 0.1 to 1 µM | 0.1 to 1 µM |
| Fc1ccc(CNc2nc(-c3ccccn3)nc3scc(-c4ccccc4)c23)cc1 [Example 1.4, N-(4-Fluorobenzyl)-5-phenyl-2-(pyridin-2-yl)thieno[2,3-d]pyrimidin-4-amine] | > 20 µM | > 20 µM |
| Cc1csc2c(N3CCC(NCCCc4cccc(Cl)c4)CC3)ncnc12 [Example 3.19, N-(3-(3-Chlorophenyl)propyl)-1-(7-methylthieno[3,2-d]pyrimidin-4-yl)piperidin-4-amine] | 0.1 to 1 µM | > 20 µM |
| CCOc1nc(NCc2ccc(S(N)(=O)=O)cc2)c2c(Br)nn(C)c2n1 [Example 2.97, 4-((3-Bromo-6-ethoxy-1-methyl-1H-pyrazolo[3,4-d]pyrimidin-4-yl)aminomethyl)-benzenesulfonamide] | < 0.1 µM | < 0.1 µM |
| COc1nc(NCc2ccc(S(N)(=O)=O)cc2)c2c(Br)nn(C)c2n1 [Example 2.96, 4-((3-Bromo-6-methoxy-1-methyl-1H-pyrazolo[3,4-d]pyrimidin-4-yl)aminomethyl)-benzenesulfonamide] | < 0.1 µM | < 0.1 µM |
| COc1cc(CNc2nc(-c3ccccn3)nc3scc(-c4ccccc4)c23)ccc1S(N)(=O)=O [Example 1.16, 2-Methoxy-4-(((5-phenyl-2-(pyridin-2-yl)thieno[2,3-d]pyrimidin-4-yl)amino)methyl)benzenesulfonamide] | 0.1 to 1 µM | 1 to 20 µM |
| Cc1csc2c(N3CCC(NCCCc4ccncc4)CC3)nc(-c3ccccn3)nc12 [Example 3.56, 1-(7-Methyl-2-(pyridin-2-yl)thieno[3,2-d]pyrimidin-4-yl)-N-(3-(pyridin-4-yl)propyl)piperidin-4-amine] | > 20 µM | > 20 µM |
| O=C(CCc1ccc(F)cc1)NC1CCN(c2ncnc3ccsc23)CC1 [Example 3.46, 3-(4-Fluorophenyl)-N-(1-(thieno[3,2-d]pyrimidin-4-yl)piperidin-4-yl)propanamide] | > 20 µM | > 20 µM |
| Cc1csc2c(N3CCC(NCCCc4ccncc4)C3)ncnc12 (stereo not shown) [Example 3.29, 1-(7-Methylthieno[3,2-d]pyrimidin-4-yl)-N-(3-(pyridin-4-yl)propyl)pyrrolidin-3-amine] | 0.1 to 1 µM | > 20 µM |
| CCSc1nc(NCc2ccc(S(N)(=O)=O)cc2)c2c(Br)nn(C)c2n1 [Example 2.110, 4-((3-Bromo-6-(ethylsulfanyl)-1-methyl-1H-pyrazolo[3,4-d]pyrimidin-4-yl)aminomethyl)-benzenesulfonamide] | < 0.1 µM | < 0.1 µM |
| Cc1csc2c(N3CCC(NC(=O)COc4ccc(F)cc4)CC3)ncnc12 [Example 3.22, 2-(4-Fluorophenoxy)-N-(1-(7-methylthieno[3,2-d]pyrimidin-4-yl)piperidin-4-yl)acetamide] | 1 to 20 µM | > 20 µM |
| Cn1ncc2c(NCc3ccc(S(N)(=O)=O)nc3)ncnc21 [Example 2.52, 5-(((1-Methyl-1H-pyrazolo[3,4-d]pyrimidin-4-yl)amino)methyl)pyridine-2-sulfonamide] | < 0.1 µM | 1 to 20 µM |
| O=C(CCc1ccc(F)cc1)NC1CCN(c2ncnc3c(-c4ccccc4)csc23)CC1 [Example 3.57, 3-(4-Fluorophenyl)-N-(1-(7-phenylthieno[3,2-d]pyrimidin-4-yl)piperidin-4-yl)propanamide] | > 20 µM | > 20 µM |
| CCn1ncc2c(NCc3ccc(S(N)(=O)=O)cc3)nc(OCCC(C)C)nc21 [Example 2.102, 4-((1-Ethyl-6-(3-methylbutoxy)-1H-pyrazolo[3,4-d]pyrimidin-4-yl)aminomethyl)-benzenesulfonamide] | < 0.1 µM | 0.1 to 1 µM |
| Cn1ncc2c(N3CCC(NCCCc4ccc(F)cc4)CC3)ncnc21 [Example 3.50, N-(3-(4-Fluorophenyl)propyl)-1-(1-methyl-1H-pyrazolo[3,4-d]pyrimidin-4-yl)piperidin-4-amine] | > 20 µM | > 20 µM |
| Cc1nc(NCc2ccc(S(N)(=O)=O)cc2)c2cnn(C)c2n1 [Example 2.26, 4-(((1,6-Dimethyl-1H-pyrazolo[3,4-d]pyrimidin-4-yl)amino)methyl)benzenesulfonamide] | < 0.1 µM | 0.1 to 1 µM |
| Cn1ncc2c(NCc3ccc(S(N)(=O)=O)cc3)nc(Nc3ccccc3)nc21 [Example 2.50, 4-(((1-Methyl-6-(phenylamino)-1H-pyrazolo[3,4-d]pyrimidin-4-yl)amino)methyl)-benzenesulfonamide] | < 0.1 µM | 0.1 to 1 µM |
| Cc1nc(NCc2ccc(S(N)(=O)=O)s2)c2c(-c3ccccc3)csc2n1 [Example 1.45, 5-(((2-Methyl-5-phenylthieno[2,3-d]pyrimidin-4-yl)amino)methyl)thiophene-2-sulfonamide] | > 20 µM | > 20 µM |
| NS(=O)(=O)c1ccc(CNc2ncnc3scc(-c4ccccc4)c23)s1 [Example 1.28, 5-(((5-Phenylthieno[2,3-d]pyrimidin-4-yl)amino)methyl)thiophene-2-sulfonamide] | 1 to 20 µM | > 20 µM |
| NS(=O)(=O)c1ccc(CNc2nc(-c3ccccn3)nc3scc(-c4ccccc4)c23)s1 [Example 1.31, 5-(((5-Phenyl-2-(pyridin-2-yl)thieno[2,3-d]pyrimidin-4-yl)amino)methyl)thiophene-2-sulfonamide] | < 0.1 µM | 0.1 to 1 µM |
| CNc1nc(NCc2ccc(S(N)(=O)=O)cc2)c2cnn(C)c2n1 [Example 2.27, 4-(((1-Methyl-6-(methylamino)-1H-pyrazolo[3,4-d]pyrimidin-4-yl)amino)methyl)-benzenesulfonamide] | < 0.1 µM | 0.1 to 1 µM |
| N#Cc1ccc(CNc2nc(-c3ccccn3)nc3scc(-c4ccccc4)c23)cc1 [Example 1.11, 4-[(5-Phenyl-2-pyridin-2-yl-thieno[2,3-d]pyrimidin-4-ylamino)-methyl]-benzonitrile] | > 20 µM | > 20 µM |
| Cc1cc(S(N)(=O)=O)ccc1CNc1ncnc2c1cnn2C [Example 2.2, 3-Methyl-4-(((1-methyl-1H-pyrazolo[3,4-d]pyrimidin-4-yl)amino)methyl)-benzenesulfonamide] | 0.1 to 1 µM | 1 to 20 µM |
| CCSc1nc(NCc2ccc(S(N)(=O)=O)cc2)c2cnn(CC)c2n1 [Example 2.109, 4-((1-Ethyl-6-(ethylsulfanyl)-1H-pyrazolo[3,4-d]pyrimidin-4-yl)aminomethyl)-benzenesulfonamide] | < 0.1 µM | 0.1 to 1 µM |
| Fc1ccc(CCCNC2CCN(c3ncnc4ccsc34)CC2)cc1 [Example 3.47, N-(3-(4-Fluorophenyl)propyl)-1-(thieno[3,2-d]pyrimidin-4-yl)piperidin-4-amine] | 1 to 20 µM | > 20 µM |
